Experimental data taken from the CheMixHub viscosity set.

Test: xn = mol fraction of the nth substance listed

CCC(=O)O + CCCCN(CCCC)CCCC
viscosity [mPa·s], 101.33 kPa
Settings | x1 = 0.1 | x1 = 0.2 | x1 = 0.3 | x1 = 0.4 | x1 = 0.5 | x1 = 0.6 | x1 = 0.7 | x1 = 0.8 | x1 = 0.9
293.15 K | 1.867 | – | – | – | 6.422 | 12.71 | 26.1 | 23.66 | 6.57
298.15 K | 1.389 | 1.676 | 2.303 | 3.571 | 5.447 | 10.24 | 20.63 | 19.13 | 5.91
303.15 K | 1.228 | 1.495 | 1.923 | 3.107 | 4.591 | 8.37 | 16.9 | 15.79 | 4.93
308.15 K | 1.112 | 1.342 | 1.728 | 2.693 | 3.887 | 7.04 | 13.12 | 13.19 | 4.33
313.15 K | 1.015 | 1.212 | 1.523 | 2.359 | 3.372 | 5.67 | 10.81 | 10.94 | 3.79
318.15 K | 0.938 | 1.096 | 1.361 | 2.071 | 2.954 | 5.03 | 8.92 | 9.32 | 3.39
323.15 K | 0.878 | 0.994 | 1.245 | 1.839 | 2.557 | 4.35 | 7.55 | 8.06 | 3.04

C1C[C@@H]2[C@H]3CC[C@H](C3)[C@@H]2C1 + CCCCO
viscosity [mPa·s], 101 kPa
Settings | x2 = 0.1697 | x2 = 0.3148 | x2 = 0.4378 | x2 = 0.5481 | x2 = 0.6472 | x2 = 0.7336 | x2 = 0.8102 | x2 = 0.8799 | x2 = 0.9439
293.15 K | 2.796 | 2.675 | 2.646 | 2.66 | 2.694 | 2.743 | 2.807 | 2.855 | 2.906
298.15 K | 2.513 | 2.397 | 2.354 | 2.355 | 2.372 | 2.416 | 2.465 | 2.505 | 2.543
303.15 K | 2.282 | 2.177 | 2.128 | 2.118 | 2.135 | 2.165 | 2.211 | 2.242 | 2.272
313.15 K | 1.882 | 1.773 | 1.708 | 1.685 | 1.682 | 1.7 | 1.719 | 1.743 | 1.766

CCC(=O)O + CCCCO
308.15 K, 101 kPa
Settings | viscosity [mPa·s]
x1 = 0.0503 | 1.834
x1 = 0.1016 | 1.791
x1 = 0.1477 | 1.736
x1 = 0.1995 | 1.695
x1 = 0.301 | 1.556
x1 = 0.4 | 1.482
x1 = 0.5007 | 1.402
x1 = 0.5993 | 1.312
x1 = 0.7006 | 1.222
x1 = 0.7995 | 1.12
x1 = 0.9007 | 1.02

CCCCCCCCCCCCC + CCCCO
viscosity [mPa·s], 100 kPa
Settings | x1 = 0.1001 | x1 = 0.2009 | x1 = 0.2975 | x1 = 0.3918 | x1 = 0.5054 | x1 = 0.6051 | x1 = 0.7 | x1 = 0.7984 | x1 = 0.8908
293.15 K | 2.584 | 2.319 | 2.148 | 2.004 | 1.901 | 1.841 | 1.807 | 1.788 | 1.829
298.15 K | 2.271 | 2.051 | 1.905 | 1.789 | 1.703 | 1.644 | 1.63 | 1.617 | 1.668
303.15 K | 2.006 | 1.821 | 1.701 | 1.606 | 1.535 | 1.489 | 1.48 | 1.469 | 1.522
308.15 K | 1.782 | 1.625 | 1.524 | 1.448 | 1.391 | 1.353 | 1.351 | 1.342 | 1.386
313.15 K | 1.591 | 1.459 | 1.374 | 1.312 | 1.268 | 1.246 | 1.239 | 1.231 | 1.265
318.15 K | 1.426 | 1.314 | 1.245 | 1.194 | 1.161 | 1.152 | 1.139 | 1.133 | 1.158
323.15 K | 1.283 | 1.19 | 1.132 | 1.092 | 1.066 | 1.059 | 1.052 | 1.048 | 1.068

ClCCCCCl + CCCCO
viscosity [mPa·s], 101 kPa
Settings | x1 = 0.0988 | x1 = 0.1965 | x1 = 0.2919 | x1 = 0.3955 | x1 = 0.4961 | x1 = 0.5978 | x1 = 0.6964 | x1 = 0.7945 | x1 = 0.8982
298.15 K | 2.129 | 1.827 | 1.61 | 1.455 | 1.338 | 1.265 | 1.221 | 1.204 | 1.213
313.15 K | 1.485 | 1.3 | 1.17 | 1.077 | 1.012 | 0.9721 | 0.9502 | 0.9443 | 0.9674

Nc1cccc(Cl)c1 + CCCCO
viscosity [mPa·s], 101 kPa
Settings | x1 = 0.0884 | x1 = 0.1792 | x1 = 0.2723 | x1 = 0.368 | x1 = 0.4662 | x1 = 0.5671 | x1 = 0.6708 | x1 = 0.7774 | x1 = 0.8871
303.15 K | 2.47 | 2.654 | 2.84 | 3.03 | 3.219 | 3.412 | 3.607 | 3.806 | 4.02
308.15 K | 2.198 | 2.371 | 2.546 | 2.72 | 2.895 | 3.073 | 3.253 | 3.441 | 3.635
313.15 K | 1.966 | 2.128 | 2.284 | 2.441 | 2.598 | 2.759 | 2.923 | 3.091 | 3.261
318.15 K | 1.761 | 1.911 | 2.052 | 2.19 | 2.328 | 2.468 | 2.61 | 2.756 | 2.897

O=C(O)c1ccccc1O + CCCCO
viscosity [mPa·s]
Settings | 308.15 K | 313.15 K | 318.15 K | 323.15 K
101 kPa, x1 = 0.14 | 2.453 | – | – | –
101 kPa, x1 = 0.173 | 2.656 | – | – | –
101 kPa, x1 = 0.193 | 2.761 | – | – | –
101.33 kPa, x1 = 0.14 | 2.453 | 2.187 | 1.951 | 1.736
101.33 kPa, x1 = 0.193 | 2.761 | 2.375 | 2.154 | 1.928

Nc1cccc(Cl)c1 + CCCCOCCO
303.15 K, 101 kPa
Settings | viscosity [mPa·s]
x1 = 0.1347 | 2.958
x1 = 0.2158 | 3.022
x1 = 0.3353 | 3.099
x1 = 0.4394 | 3.15
x1 = 0.5555 | 3.192
x1 = 0.6554 | 3.214
x1 = 0.7157 | 3.226
x1 = 0.8263 | 3.239
x1 = 0.912 | 3.242

CC(=O)CCC(=O)O + CCCC[N+](CCCC)(CCCC)CCCC.[Br-]
viscosity [mPa·s], 101 kPa
Settings | 293.15 K | 298.15 K | 303.15 K | 308.15 K | 313.15 K | 318.15 K | 323.15 K
x1 = 0.75 | 376.5 | – | 175.1 | – | 93.88 | – | 53.38
x2 = 0.25 | – | 261.9 | 169.6 | 118.6 | 89.13 | 64.47 | 46.13
